Measured values: article PMC5640878, “The GlyR Extracellular β8–β9 Loop – A Functional Determinant of Agonist Potency” (Frontiers in Molecular Neuroscience, 2017)
Like-named read-outs stand apart in the source and are kept apart here.

Experiments:
[1] = target: T1, GlyRα1β WT (UniProt P48167+Q64018); experiment: whole-cell patch clamp recordings of transfected HEK293 cells; assay type: cell-based, murine
T1 construct: expressed in transfected cells; host or cells: HEK293
Method: (§1) Media were exchanged after 6–24 h.
(§2) All experiments were performed at room temperature.

[2] = test system: GlyRα1^Q177β variants; conditions: saturating glycine (1 mM); HEK293, whole-cell
Method: as §1, §2

[3] = test system: GlyRα1^Q177K; conditions: shaky mouse; ref Schaefer et al., 2017; cited from earlier work
[4] = test system: GlyR R65 mutated to lysine; conditions: ref Grudzinska et al., 2005; cited from earlier work
[5] = test system: GlyR R65 mutated to alanine; conditions: ref Grudzinska et al., 2005; cited from earlier work
[6] = target: GlyRα1^Q177Aβ (UniProt P48167+Q64018, Q205A); experiment: whole-cell patch clamp recordings of transfected HEK293 cells
Method: (§3) HEK293 cells were transiently transfected using a modified calcium phosphate precipitation method. A mixture of plasmid DNA, CaCl2, 0.1x TE buffer and 2x HBS (50 mM HEPES, 12 mM glucose, 10 mM KCl, 280 mM NaCl, 1.5 mM Na2HPO4) was applied onto the cells. A GlyRα1 to GlyRβ ratio of 1:2 was used for co-expression. For GlyRα1:GlyRβ:GFP co-expression, a ratio of 1:2:1 was transfected. The same amount of DNA was used for GlyRα1 WT and mutants. Media were exchanged after 6–24 h. Immunocytochemical stainings and electrophysiological experiments were always done 24 h after transfection, biotinylation experiments were performed 48 h after transfection.
(§4) The patch clamp technique was used to measure current amplitudes (I) of transfected HEK293 cells. Currents were amplified using an EPC-9 amplifier and the software Patchmaster (HEKA, Lambrecht, Germany). Cells were patched 24 h after transfection in a whole-cell configuration mode. […] All agonist and antagonists were applied using an Octaflow II system (ALA Scientific Instruments, Farmingdale, NY, United States). The extracellular buffer consisted of (in mM): 137 NaCl, 5.4 KCl, 1.8 CaCl2, 1 MgCl2, 5 HEPES, pH adjusted to 7.4 with NaOH. The intracellular buffer contained (in mM): 120 CsCl, 20 N(Et)4Cl, 1 CaCl2, 2 MgCl2, 11 EGTA, 10 HEPES, pH adjusted to 7.2 with CsOH. Recording pipettes with an open resistance of 4–6 MΩ were manufactured from borosilicate capillaries using a P97 horizontal puller (Sutter Instrument, Novato, CA, United States). Cells were held at -60 mV and fast capacitances were in range of 11–13 pF. All experiments were performed at room temperature.
(§5) The following Hill equation was used: I = Imax ^∗ c^nHill/(c^nHill + EC50^nHill). I refers to the current amplitude at the given agonist concentration c, Imax is the current amplitude at a saturating agonist, EC50 refers to the agonist concentration evoking half-maximal current responses and nHill is the Hill coefficient.

[7] = target: GlyRα1^Q177Cβ (UniProt P48167+Q64018, Q205C); experiment: as above
Method: as §3, §4, §5

[8] = target: GlyRα1^Q177Dβ (UniProt P48167+Q64018, Q205D); experiment: as above
Method: as §3, §4, §5

[9] = target: GlyRα1^Q177Eβ (UniProt P48167+Q64018, Q205E); experiment: as above
Method: as §3, §4, §5

[10] = target: GlyRα1^Q177Gβ (UniProt P48167+Q64018, Q205G); experiment: as above
Method: as §3, §4, §5

[11] = target: GlyRα1^Q177Kβ (UniProt P48167+Q64018, Q205K); experiment: as above
Method: as §3, §4, §5

[12] = target: GlyRα1^Q177Nβ (UniProt P48167+Q64018, Q205N); experiment: as above
Method: as §3, §4, §5

[13] = target: GlyRα1^Q177Rβ (UniProt P48167+Q64018, Q205R); experiment: as above
Method: as §3, §4, §5

[14] = target: GlyRα1^Q177Wβ (UniProt P48167+Q64018, Q205W); experiment: as above
Method: as §3, §4, §5

[15] = 100 μM glycine, HEK293, co-expressed with GlyRβ, whole-cell
[16] = Hill coefficient of glycine concentration-response curve
[17] = read-out: EC50 glycine, HEK293, α1:β 1:2, whole-cell currents, 1–3000 μM glycine
[18] = 100 μM β-alanine, HEK293, whole-cell
[19] = Hill coefficient of β-alanine concentration-response curve
[20] = saturating 10 mM β-alanine, HEK293, whole-cell
[21] = 100 μM taurine, HEK293, whole-cell
[22] = Hill coefficient of taurine concentration-response curve
[23] = 10 mM taurine, HEK293, whole-cell, mutant probably not completely saturated

SMILES: NCC(=O)O [glycine]
- Mean Igly 100 μM ± SEM [1, 15]: 3.8 ± 0.3 nA
- nH glycine [1, 16]: 1.9
- EC50 [1, 17]: 58 ± 4 µM
- Imax values in comparison to GlyRα1β WT [2]: No significant differences
- binding to the mutated receptor compared to GlyRα1 WT [3]: bound with the same efficiency
- decrease in glycine EC50 [4]: 200 fold
- decrease in glycine EC50 [5]: 1250 fold
- increase in glycine EC50 compared to GlyRα1β WT [6]: 3.6 fold
- Mean Igly 100 μM ± SEM [6, 15]: 0.8 ± 0.3 nA
- nH glycine [6, 16]: 2.0
- EC50 [6, 17]: 208 ± 22 µM
- increase in glycine EC50 compared to GlyRα1β WT [7]: 1.5 fold
- Mean Igly 100 μM ± SEM [7, 15]: 1.8 ± 0.3 nA
- nH glycine [7, 16]: 2.1
- increase in glycine EC50 compared to GlyRα1β WT [8]: 2.3 fold
- Mean Igly 100 μM ± SEM [8, 15]: 0.9 ± 0.3 nA
- nH glycine [8, 16]: 3.4
- EC50 [8, 17]: 137 ± 4 µM
- increase in glycine EC50 compared to GlyRα1β WT [9]: 1.8 fold
- Mean Igly 100 μM ± SEM [9, 15]: 1.6 ± 0.2 nA
- nH glycine [9, 16]: 2.6
- increase in glycine EC50 compared to GlyRα1β WT [10]: 4.5 fold
- Mean Igly 100 μM ± SEM [10, 15]: 0.3 ± 0.08 nA
- nH glycine [10, 16]: 2.5
- EC50 [10, 17]: 262 ± 13 µM
- increase in glycine EC50 compared to GlyRα1β WT [11]: 5.3 fold
- Mean Igly 100 μM ± SEM [11, 15]: 0.6 ± 0.07^∗∗∗ nA
- nH glycine [11, 16]: 2.2
- EC50 [11, 17]: 312 ± 7 µM
- increase in glycine EC50 compared to GlyRα1β WT [12]: 1.6 fold
- Mean Igly 100 μM ± SEM [12, 15]: 1.2 ± 0.2 nA
- nH glycine [12, 16]: 3.0
- increase in glycine EC50 compared to GlyRα1β WT [13]: 4 fold
- Mean Igly 100 μM ± SEM [13, 15]: 0.8 ± 0.07 nA
- nH glycine [13, 16]: 2.0
- EC50 [13, 17]: 231 ± 4 µM
- increase in glycine EC50 compared to GlyRα1β WT [14]: 2.2 fold
- Mean Igly 100 μM ± SEM [14, 15]: 1.8 ± 0.3 nA
- nH glycine [14, 16]: 3.7
- EC50 [14, 17]: 130 ± 12 µM

SMILES: NCCC(=O)O [β-alanine]
- agonist-induced inward current at 100 μM β-alanine [1, 18]: 1.3 ± 0.3 nA
- EC50 ([1]; HEK293, co-expressed with GlyRβ, whole-cell, 3–10000 μM β-alanine, read-out: EC50 β-alanine): 157 ± 7 µM
- nH β-alanine [1, 19]: 2.6
- absolute current amplitude at 10 mM β-alanine [1, 20]: 5.3 ± 2 nA
- EC50 [12]: 203 ± 17 µM
- agonist-induced inward current at 100 μM β-alanine [12, 18]: 0.87 ± 0.4 nA
- nH β-alanine [12, 19]: 1.7
- absolute current amplitude at 10 mM β-alanine [12, 20]: 4.1 ± 0.8 nA
- EC50 [13]: 359 ± 19 µM
- agonist-induced inward current at 100 μM β-alanine [13, 18]: 0.2 ± 0.07 nA
- nH β-alanine [13, 19]: 1.9
- absolute current amplitude at 10 mM β-alanine [13, 20]: 4.5 ± 0.9 nA

SMILES: NCCS(=O)(=O)O [taurine]
- agonist-induced inward current at 100 μM taurine [1, 21]: 0.13 ± 0.06 nA
- absolute current amplitude at 10 mM taurine (efficacy) ([1]; 10 mM taurine, HEK293, whole-cell): 5.7 ± 0.4 nA
- EC50 ([1]; HEK293, co-expressed with GlyRβ, whole-cell, 3–10000 μM taurine, read-out: EC50 taurine): 593 ± 18 µM
- nH taurine [1, 22]: 2.3
- agonist-induced inward current at 100 μM taurine [12, 21]: 0.02 ± 0.001 nA
- absolute current amplitude at 10 mM taurine (efficacy) [12, 23]: 2.7 ± 0.5 nA
- nH taurine [12, 22]: 1.6
- increase of the EC50 for taurine compared to GlyRα1β WT ([12]; human, hek293 cells): 2.1 fold
- agonist-induced inward current at 100 μM taurine [13, 21]: 0 ± 0 nA
- absolute current amplitude at 10 mM taurine (efficacy) [13, 23]: 3.1 ± 0.4 nA
- nH taurine [13, 22]: 1.5
- increase of the EC50 for taurine compared to GlyRα1β WT ([13]; human, hek293 cells): 5 fold

SMILES: O=C1C[C@@H]2OCC=C3CN4CC[C@]56c7ccccc7N1[C@H]5[C@H]2[C@H]3C[C@H]46 [strychnine]
- binding to the mutated receptor compared to GlyRα1 WT [3]: bound with the same efficiency
